The nature of the series: Oral PK in rats, single oral dose, plasma concentration by LC-MS/MS. It counts as in vivo, Sprague Dawley (SD) rats. The settings on record: SD rats, single oral gavage 5 mg/kg, n=3; for Cmax: 1 mg/mL solution in DMA:30% Solutol HS 15:Saline 10:10:80, plasma; for AUC0-t: sampling up to 24 hours, plasma. As to the method:
Biological Description of Oral PK in Rats:
In brief, the compounds were prepared in a solvent [DMA: 30% Solutol HS 15: Saline=10:10:80 (v/v/v)] to form clear solution formulations having a concentration of 1 mg/mL. Each test compound was administered to 3 rats (n=3) in single oral gavage (5 mg/kg). Approximately 150 μL of whole blood was taken from a subclavian vein of each experimental rat before administration and at 0.25, 0.5, 1, 2, 4, 8, 12, and 24 hours after administration, respectively, and was collected into an Eppendorf tube containing EDTA-K2, then 100 μL of the whole blood was added to an Eppendorf tube containing 300 μL of cyanomethane (ACN), mixed and then centrifuged to separate the plasma, and after it was ensured that there was no hemolysis in the samples, the plasma samples were stored in a freezer at −90° C. to −60° C. for analyses of drug concentrations in the samples via LC-MS/MS.
Concentrations of compounds in the plasma samples were tested and analyzed via LC-MS/MS system (API4000: LC-MS-MS-001), 10 μL of the sample was mixed with 100 μL of ACN containing a standard, then 110 μL of water was added and the mixture was oscillated, and finally, 2 μL of the mixed solution was injected into the LC-MS/MS system.

Setting [1] is: Sprague-Dawley, rat, read-out: Cmax.
Where [2] appears, read: Sprague-Dawley, rat, read-out: AUC0-t.

Molecules are shown by their SMILES. Where two headings read alike, the source gives them in different places.

In patent US20240308984A1, “Jak Inhibitor With High Oral Bioavailability” (TECHNODERMA MEDICINES INC, priority 2021, published 2024) one finds Cmax and AUC0-t data, which are given here for ten compounds.

What is called Cmax is the peak of the concentration-time curve.

Regarding `Cn1cc(Nc2nccc(-c3ccc(NC(=O)[C@@H]4CC4(F)F)nc3)n2)cn1` [Comparative Example 1, (S)-2,2-difluoro-N-(5-(2-((1-methyl-1H-pyrazol-4-yl)amino)pyrimidin-4-yl)pyridin-2-yl)cycloprop-ane-1-carboxamide], the Cmax under setting [1] came out at 116 ng/mL. Moreover, the AUC0-t under setting [2] came to 891 ng·h/mL.

`Cn1cc(Nc2nccc(-c3ccc(NS(=O)(=O)Cc4cccc(C#N)c4)cc3)n2)cn1` [Comparative Example 2] came in with a Cmax of 20.2 ng/mL and an AUC0-t of 47.4 ng·h/mL.

Consider `Cn1cc(Nc2nccc(-c3ccc(NS(=O)(=O)Cc4cccc(F)c4)cc3)n2)cn1` [Comparative Example 3], for which the AUC0-t is 381 ng·h/mL.

`CCNC(=O)c1ccc(Nc2nccc(-c3ccc(NC(=O)[C@@H]4CC4(F)F)cc3)n2)cc1C` [Comparative Example 4]: the Cmax worked out at 5.02 ng/mL and the AUC0-t stood at 30.7 ng·h/mL.

`CCNC(=O)c1ccc(Nc2nccc(-c3ccc(NC(=O)[C@@H]4CC4(F)F)cc3)n2)cc1` [Comparative Example 5] had a Cmax of 16.5 ng/mL and an AUC0-t of 141 ng·h/mL.

Take `Cn1cc(Nc2nccc(-c3ccc(N(COC(=O)C(C)(C)C)C(=O)[C@@H]4CC4(F)F)nc3)n2)cn1` [Example 1, (S)-(2,2-difluoro-N-(5-(2-(((1-methyl-1H-pyrazol-4-yl)amino)pyrimidin-4-yl)pyridin-2-yl)cyclopropane-1-carboxamido)methyl pivalate]: the AUC0-t was found to be 1670 ng·h/mL.

`Cn1cc(Nc2nccc(-c3ccc(N(COC(=O)C(C)(C)C)S(=O)(=O)Cc4cccc(C#N)c4)cc3)n2)cn1` [Example 2, (41-(3-cyanophenyl)-N-(4-(2-(((1-methyl-1H-pyrazol-4-yl)amino)pyrimidin-4-yl)phenyl)methyl)sulfonamido)methyl pivalate]: the Cmax under setting [1] amounted to 791 ng/mL. Also, under setting [2], the AUC0-t was determined as 1580 ng·h/mL.

For `Cn1cc(Nc2nccc(-c3ccc(N(COC(=O)C(C)(C)C)S(=O)(=O)Cc4cccc(F)c4)cc3)n2)cn1` [Example 3], the Cmax under setting [1] amounted to 1860 ng/mL. Also, the AUC0-t under setting [2] was found to be 2890 ng·h/mL.

Turning to `CCNC(=O)c1ccc(Nc2nccc(-c3ccc(N(COC(=O)C(C)(C)C)C(=O)C4CC4(F)F)cc3)n2)cc1C` (stereo not drawn) [Example 4], the Cmax under setting [1] stood at 635 ng/mL. The AUC0-t under setting [2] came out at 3090 ng·h/mL.

For `CCNC(=O)c1ccc(Nc2nccc(-c3ccc(N(COC(=O)C(C)(C)C)C(=O)C4CC4(F)F)cc3)n2)cc1` (stereo not drawn) [Example 5], the Cmax under setting [1] amounted to 689 ng/mL. Also, the AUC0-t under setting [2] worked out at 2710 ng·h/mL.
